Target: human capsaicin receptor (VR1) (Homo sapiens, UniProt Q8NER1)
Experiment: Capsaicin receptor binding assay ([3H]RTX competition, VR1-transfected HEK293 membranes)

human capsaicin receptor (VR1), sequence (Q8NER1 whole entry): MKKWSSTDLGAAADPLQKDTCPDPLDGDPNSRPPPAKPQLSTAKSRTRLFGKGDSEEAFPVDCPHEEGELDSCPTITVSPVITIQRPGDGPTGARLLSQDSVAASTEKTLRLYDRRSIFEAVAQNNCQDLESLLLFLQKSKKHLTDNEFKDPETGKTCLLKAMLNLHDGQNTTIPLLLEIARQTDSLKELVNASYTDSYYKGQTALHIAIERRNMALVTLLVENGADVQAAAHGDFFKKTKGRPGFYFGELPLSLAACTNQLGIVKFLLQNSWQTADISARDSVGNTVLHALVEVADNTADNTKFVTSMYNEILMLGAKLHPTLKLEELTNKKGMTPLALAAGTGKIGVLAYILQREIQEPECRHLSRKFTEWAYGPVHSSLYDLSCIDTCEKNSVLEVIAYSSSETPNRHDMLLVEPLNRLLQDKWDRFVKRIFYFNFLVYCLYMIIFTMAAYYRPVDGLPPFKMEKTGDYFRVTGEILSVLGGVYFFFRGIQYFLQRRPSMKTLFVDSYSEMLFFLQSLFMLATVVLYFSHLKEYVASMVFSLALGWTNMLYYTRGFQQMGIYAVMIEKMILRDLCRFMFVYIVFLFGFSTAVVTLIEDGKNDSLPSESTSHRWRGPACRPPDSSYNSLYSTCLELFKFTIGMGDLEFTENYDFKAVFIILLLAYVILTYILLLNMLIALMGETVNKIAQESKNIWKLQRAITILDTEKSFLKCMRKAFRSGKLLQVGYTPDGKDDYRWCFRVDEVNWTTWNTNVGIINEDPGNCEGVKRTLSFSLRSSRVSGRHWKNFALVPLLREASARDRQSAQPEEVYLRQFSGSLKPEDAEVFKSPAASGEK

Row | SMILES | Ki [nM]
1 | CCN(CC)CCCNC(=O)c1nc(Nc2ccc(C(F)(F)F)cc2)c2ccc(-c3ncccc3C(F)(F)F)nc2n1 [Compound 441, 4-(4-Trifluoromethyl-phenylamino)-7-(3-trifluoromethyl-pyridin-2-yl)-pyrido[2,3-d]pyrimidine-2-carboxylic acid (3-diethylamino-propyl)-amide] | < 1000
2 | CS(=O)(=O)N1CCc2cc(Nc3nc(COCc4ccccc4)nc4cc(-c5ncccc5C(F)(F)F)ccc34)ccc21 [Compound 44, [2-Benzyloxymethyl-7-(3-trifluoromethyl-pyridin-2-yl)-quinazolin-4-yl]-(1-methanesulfonyl-2,3-dihydro-1H-indol-5-yl)-amine] | < 1000
3 | O=C(NCC1CC1)c1nc(Nc2ccc(C(F)(F)F)cc2)c2ccc(-c3ncccc3C(F)(F)F)nc2n1 [Compound 453, 4-(4-Trifluoromethyl-phenylamino)-7-(3-trifluoromethyl-pyridin-2-yl)-pyrido[2,3-d]pyrimidine-2-carboxylic acid cyclopropylmethyl-amide] | < 1000
4 | CC(C)(C)c1ccc(Nc2nc(CN3CCC[C@H]3C(=O)O)nc3nc(-c4ncccc4C(F)(F)F)ccc23)cc1 [Compound 758, (S)-1-[4-(4-tert-Butyl-phenylamino)-7-(3-trifluoromethyl-pyridin-2-yl)-pyrido[2,3-d]pyrimidin-2-ylmethyl]-pyrrolidine-2-carboxylic acid] | < 1000
5 | CC(C)c1ccc(Nc2nc(CN3C[C@@H](C)O[C@H](C)C3)nc3cc(-c4ncccc4Cl)ccc23)cc1 [Compound 625, (R,R)-(4-Isopropyl-phenyl)-[7-(3-chloro-pyridin-2-yl)-2-(2,6-dimethyl-morpholin-4-ylmethyl)-quinazolin-4-yl]-amine] | < 1000
6 | O=C(OCc1ccccc1)N1CCC[C@H]1c1nc(Nc2ccc(C(F)(F)F)cc2)c2ccc(-c3ncccc3C(F)(F)F)cc2n1 [Compound 656, (S)-2-[4-(4-Trifluoromethyl-phenylamino)-7-(3-trifluoromethyl-pyridin-2-yl)-quinazolin-2-yl]-pyrrolidine-1-carboxylic acid benzyl ester] | < 1000
7 | CCOCc1nc(Nc2ccc(C(F)(F)F)cc2)c2ccc(-c3ncccc3C)nc2n1 [Compound 138, [2-Ethoxymethyl-7-(3-methyl-pyridin-2-yl)-pyrido[2,3-d]pyrimidin-4-yl]-(4-trifluoromethyl-phenyl)-amine] | < 1000
8 | COCc1nc(Nc2ccc(C(C)(C)C#N)cc2)c2ccc(-c3ncccc3C(F)(F)F)nc2n1 [Compound 290, 2-{4-[2-Methoxymethyl-7-(3-trifluoromethyl-pyridin-2-yl)-pyrido[2,3-d]pyrimidin-4-ylamino]-phenyl}-2-methyl-propionitrile] | < 1000
9 | CCCN(CC)Cc1nc(Nc2ccc(C(C)C)cc2)c2ccc(-c3ncccc3C)cc2n1 [Compound 715, [2-[(Ethyl-propyl-amino)-methyl]-7-(3-methyl-pyridin-2-yl)-quinazolin-4-yl]-(4-isopropyl-phenyl)-amine] | < 1000
10 | CC(C)COCc1nc(Nc2ccc(F)cc2)c2ccc(-c3ncccc3Cl)nc2n1 [Compound 259, [7-(3-Chloro-pyridin-2-yl)-2-isobutoxymethyl-pyrido[2,3-d]pyrimidin-4-yl]-(4-fluoro-phenyl)-amine] | < 1000
11 | CC(C)COCc1nc(Nc2ccc(F)cc2)c2ccc(-c3ncccc3C(F)(F)F)nc2n1 [Compound 248, (4-Fluoro-phenyl)-[2-isobutoxymethyl-7-(3-trifluoromethyl-pyridin-2-yl)-pyrido[2,3-d]pyrimidin-4-yl]-amine] | < 1000
12 | COCc1nc(Nc2ccc(C(F)F)cc2)c2ccc(-c3ncccc3Cl)nc2n1 [Compound 243, [7-(3-Chloro-pyridin-2-yl)-2-methoxymethyl-pyrido[2,3-d]pyrimidin-4-yl]-(4-difluoromethyl-phenyl)-amine] | < 1000
13 | COCCN(CCOC)Cc1nc(Nc2ccc(C(F)(F)F)cc2)c2ncc(-c3ncccc3C(F)(F)F)cc2n1 [Compound 670, [2-{[Bis-(2-methoxy-ethyl)-amino]-methyl}-7-(3-trifluoromethyl-pyridin-2-yl)-pyrido[3,2-d]pyrimidin-4-yl]-(4-trifluoromethyl-phenyl)-amine] | < 1000
14 | O=C(c1nc(Nc2ccc(C(F)(F)F)cc2)c2ccc(-c3ncccc3C(F)(F)F)nc2n1)N1CCN(C2CCCCCC2)CC1 [Compound 474, (4-Cycloheptyl-piperazin-1-yl)-[4-(4-trifluoromethyl-phenylamino)-7-(3-trifluoromethyl-pyridin-2-yl)-pyrido[2,3-d]pyrimidin-2-yl]-methanone] | < 1000
15 | COC(=O)[C@@H](OCc1nc(Nc2ccc(C(C)(C)C)cc2)c2ccc(-c3ncccc3C(F)(F)F)cc2n1)C(C)C [Compound 228, 2-[4-(4-tert-Butyl-phenylamino)-7-(3-trifluoromethyl-pyridin-2-yl)-quinazolin-2-ylmethoxy]-3-methyl-butyric acid methyl ester (S)] | < 1000

Other lines, results leading:

Row | Ki [nM] | SMILES
16 | < 1000 | CC1(C)CCCN(Cc2nc(Nc3ccc(C(F)(F)F)nc3)c3ccc(-c4ncccc4C(F)(F)F)cc3n2)C1 [Compound 556, [2-(3,3-Dimethyl-piperidin-1-ylmethyl)-7-(3-trifluoromethyl-pyridin-2-yl)-quinazolin-4-yl]-(6-trifluoromethyl-pyridin-3-yl)-amine]
17 | < 1000 | CC(=O)OCc1nc(Nc2ccc(C(F)(F)F)cc2)c2ccc(-c3ncccc3C(F)(F)F)cc2n1 [Compound 9, Acetic acid 4-(4-trifluoromethyl-phenylamino)-7-(3-trifluoromethyl-pyridin-2-yl)-quinazolin-2-ylmethyl ester]
18 | < 1000 | C[C@@H]1CN(Cc2nc(Nc3ccc(C(F)(F)F)nc3)c3ccc(-c4ncccc4Cl)cc3n2)C[C@@H](C)O1 [Compound 610, (R,R)-[7-(3-Chloro-pyridin-2-yl)-2-(2,6-dimethyl-morpholin-4-ylmethyl)-quinazolin-4-yl]-(6-trifluoromethyl-pyridin-3-yl)-amine]
19 | < 1000 | CC(C)S(=O)(=O)c1ccc(Nc2nc(CN3C[C@@H](C)O[C@H](C)C3)nc3cc(-c4ncccc4C(F)(F)F)ccc23)cc1 [Compound 655, (R,R)-[2-(2,6-Dimethyl-morpholin-4-ylmethyl)-7-(3-trifluoromethyl-pyridin-2-yl)-quinazolin-4-yl]-[4-(propane-2-sulfonyl)-phenyl]-amine]
20 | < 1000 | CCCCN(CC)Cc1nc(Nc2ccc(C(F)(F)F)cc2)c2ccc(-c3ncccc3C(F)(F)F)cc2n1 [Compound 334]
21 | < 1000 | OC1CCN(CCc2nc(Nc3ccc(C(F)(F)F)cc3)c3ccc(-c4ncccc4C(F)(F)F)cc3n2)CC1 [Compound 586, [2-(4-Hydroxy-piperidin-1-ylethyl)-7-(3-trifluoromethyl-pyridin-2-yl)-quinazolin-4-yl]-(4-trifluoromethyl-phenyl)-amine]
22 | < 1000 | O=C(O)[C@@H]1CCCN1Cc1nc(Nc2ccc(C(F)(F)F)cc2)c2ccc(-c3ncccc3C(F)(F)F)cc2n1 [Compound 730, (S)-1-[4-(4-Trifluoromethyl-phenylamino)-7-(3-trifluoromethyl-pyridin-2-yl)-quinazolin-2-ylmethyl]-pyrrolidine-2-carboxylic acid]
23 | < 1000 | FC(F)(F)c1ccc(Nc2nc(CCN3CCC4(CC3)OCCO4)nc3cc(-c4ncccc4C(F)(F)F)ccc23)cc1 [Compound 407, [2-[2-(1,4-Dioxa-8-aza-spiro[4.5]dec-8-yl)-ethyl]-7-(3-trifluoromethyl-pyridin-2-yl)-quinazolin-4-yl]-(4-trifluoromethyl-phenyl)-amine]
24 | < 1000 | CC(C)c1ccc(Nc2nc(CN3CCO[C@H](C)C3)nc3cc(-c4ncccc4C(F)(F)F)ccc23)cc1 [Compound 684, (R)-(4-Isopropyl-phenyl)-[2-(2-methyl-morpholin-4-ylmethyl)-7-(3-trifluoromethyl-pyridin-2-yl)-quinazolin-4-yl]-amine]
25 | < 1000 | FC(F)(F)c1ccc(Nc2nc(COCc3cccnc3)nc3cc(-c4ncccc4C(F)(F)F)ccc23)cn1 [Compound 45, [2-(Pyridin-3-ylmethoxymethyl)-7-(3-trifluoromethyl-pyridin-2-yl)-quinazolin-4-yl]-(6-trifluoromethyl-pyridin-3-yl)-amine]
26 | < 1000 | CCCN1CCC[C@H]1c1nc(Nc2ccc(C(F)(F)F)cc2)c2ccc(-c3ncccc3C(F)(F)F)cc2n1 [Compound 696, (S)-[2-(1-Propyl-pyrrolidin-2-yl)-7-(3-trifluoromethyl-pyridin-2-yl)-quinazolin-4-yl]-(4-trifluoromethyl-phenyl)-amine]
27 | < 1000 | OCCC1CCN(Cc2nc(Nc3ccc(C(F)(F)F)cc3)c3ccc(-c4ncccc4C(F)(F)F)cc3n2)CC1 [Compound 494, 2-{1-[4-(4-Trifluoromethyl-phenylamino)-7-(3-trifluoromethyl-pyridin-2-yl)-quinazolin-2-ylmethyl]-piperidin-4-yl}-ethanol]
28 | < 1000 | FC(F)(F)c1ccc(Nc2nc(CCN3CCOCC3)nc3cc(-c4ncccc4C(F)(F)F)ccc23)cc1 [Compound 400, [2-Morpholin-4-ylethyl-7-(3-trifluoromethyl-pyridin-2-yl)-quinazolin-4-yl]-(4-trifluoromethyl-phenyl)-amine]
29 | < 1000 | FC(F)(F)c1ccc(Nc2nc(CN3CCCCC3)nc3cc(-c4ncccc4C(F)(F)F)ccc23)cn1 [Compound 359, [2-Piperidin-1-ylmethyl-7-(3-trifluoromethyl-pyridin-2-yl)-quinazolin-4-yl]-(6-trifluoromethyl-pyridin-3-yl)-amine]
30 | < 1000 | COCc1nc(Nc2ccc(S(C)(=O)=O)cc2)c2ccc(-c3ncccc3C(F)(F)F)cc2n1 [Compound 32, (4-Methanesulfonyl-phenyl)-[2-methoxymethyl-7-(3-trifluoromethyl-pyridin-2-yl)-quinazolin-4-yl]-amine]
31 | < 1000 | OCCN1CCN(Cc2nc(Nc3ccc(C(F)(F)F)cc3)c3ccc(-c4ncccc4C(F)(F)F)cc3n2)CC1 [Compound 504, 2-{4-[4-(4-Trifluoromethyl-phenylamino)-7-(3-trifluoromethyl-pyridin-2-yl)-quinazolin-2-ylmethyl]-piperazin-1-yl}-ethanol]

— US20040156869A1, “2-substituted quinazolin-4-ylamine analogues” (Neurogen Corporation, priority 2002, published 2004)
